Laboratory results from publication PMC3769273, “The Relationship between Functional Inhibition and Binding for KCa2 Channel Blockers” (PLoS ONE, 2013).

Assays:
KCa2.2 [1] = target: T1, KCa2.2 (Rattus norvegicus, UniProt P70604); assay: Competition binding: inhibition of 125I-apamin binding to HEK 293 cells expressing KCa2.2; details: for Ki: KCa2.2, Cheng-Prussoff correction, read-out: K i for displacement of mono-iodoapamin
T1 construct: expressed in transfected cells; host or cells: HEK 293 cells, transient transfection (Lipofectamine 2000) with channel plasmid plus a separate GFP plasmid; Some experiments used stably transfected cells
Experimental: (§1) Radio-ligand binding studies were conducted using HEK 293 cell lines stably expressing KCa2.2 or KCa2.3. The cells were cultured in DMEM supplemented with 10% foetal calf serum, 2 mM L-glutamine, penicillin (200 units ml^–1) and streptomycin (100 µg ml^–1) in T500 flasks (Nunc). When confluent, these cells were harvested mechanically (to avoid the use of trypsin) into Ca^2+/Mg^2+ free HBSS. The cells were centrifuged at 50 g for 2 min, resuspended in DMEM at a density of approximately 2.5×10^6 cells ml^–1 and stored at 4°C until used (<2 hr). Cell density was estimated using a haemocytometer.
(§2) Routinely, incubations were performed in a total volume of 250 µl comprising 100 µl cell suspension (∼250000 cells), 100 µl ^125I-apamin and 50 µl displacing agent or incubation medium. The incubation medium contained (in mM) NaCl 140, KCl 5, MgCl2 1, CaCl2 2, glucose 10 and HEPES 10. The pH was adjusted to 7.4 with 1 M NaOH. Non-specific binding was estimated in the presence of 100 nM UCL 1848, a potent KCa2 channel blocker which causes maximal inhibition at this concentration (see Hosseini et al., Benton et al.[13]). Measurements for each test were performed in triplicate. Separation of cells from unbound ligand was achieved by rapid filtration through Whatman GF/B filters pre-treated with 0.3% v/v polyethyleneimine using a Skatron AS harvester. The quantity of labelled apamin bound was measured using a calibrated γ counter (LKB 1275) and expressed as fmol label/10^6 cells. All binding experiments were conducted at room temperature (20–25°C).
(§3) The ability of test compounds to inhibit ^125I-apamin binding was measured in the presence of 20–60 pM ^125I-apamin with or without the test compound. In every experiment each concentration of inhibitor was tested in triplicate and the data presented represents the mean of at least two separate experiments. Inhibition curves were fitted by a variant of Hill-Langmuir equation: [drawing 3] where B I is the specific binding of label in the presence of inhibitor as a percentage of the binding in its absence. Estimates of K i were obtained using the Cheng-Prussoff correction taking estimates of K L from the saturation binding studies.

KCa2.3 [2] = target: T2, KCa2.3 (Rattus norvegicus, UniProt P70605); assay: Competition binding: inhibition of 125I-apamin binding to HEK 293 cells expressing KCa2.3; details: for Ki: KCa2.3, Cheng-Prussoff correction, read-out: K i for displacement of mono-iodoapamin
T2 construct: expressed in transfected cells; host or cells: HEK 293 cell line stably expressing KCa2.3, made in house by zeocin selection
Experimental: as §1, §2, §3

KCa2.2 [3] = target: T1, KCa2.2; assay: cell-based; assay type: cell-based; details: for IC50: KCa2.2, standard physiological solution, measured at −20 mV, read-out: IC50 for inhibition of KCa2 current; for common Hill slope of concentration-inhibition curves: KCa2.2 current, standard solution
Experimental: For electrophysiology, wild type and stably transfected HEK cells were plated in 35 mm dishes. In most experiments KCa2.2 was transiently expressed in HEK 293 cells. Transient transfection was achieved using Lipofectamine 2000 (Invitrogen) according to the manufacturer's instructions. Briefly, 2 µg channel plasmid and 1 µg QBI (QBiogene), which expresses GFP, was mixed with 3 µg Lipofectamine 2000 and added to each 35 mm dish. GFP expressing cells were identified by epi-fluorescence. Conventional whole cell recordings were made using an EPC9 amplifier controlled by Pulse software (Heka). Data were filtered at 1 kHz and acquired at 5 kHz. Borosilicate glass patch pipettes (2–5 MΩ) were coated with Sylgard resin, fire polished and filled with a solution containing (in mM): KCl 140, HEPES 10, K2HEDTA 5, and either 1.2 CaCl2 (free Ca^2+ = 1 µM) or no added Ca^2+ (free Ca^2+ <10 nM). The pH was adjusted to 7.2 with 1 M KOH. Free Ca^2+ concentrations were calculated using the REACT program (G.L. Smith, University of Glasgow) and stability constants for HEDTA published in Martell and Smith. Except where stated the extracellular solution was the same as the incubation medium used in binding experiments. As with binding studies all experiments were performed at room temperature (20–25°C).
Routinely, cells were held at −80 mV and 100 ms test pulses applied to potentials between −120 mV and 40 mV. […] In order to avoid contamination of KCa2 current by the endogenous currents, inhibition by blocking agents was measured at −20 mV.
Concentration-inhibition curves were fitted by a variant of the Hill equation with the form: [drawing 4] where y is the current in the presence of blocker at concentration [B] expressed as a percentage of control and n is the Hill coefficient.

KCa2.3 [4] = details: KCa2.3, CHO cells, ref Hosseini et al. 2000; read-out: IC50 for inhibition of KCa2 current; cited from earlier work

T2 sequence (P70605 whole entry): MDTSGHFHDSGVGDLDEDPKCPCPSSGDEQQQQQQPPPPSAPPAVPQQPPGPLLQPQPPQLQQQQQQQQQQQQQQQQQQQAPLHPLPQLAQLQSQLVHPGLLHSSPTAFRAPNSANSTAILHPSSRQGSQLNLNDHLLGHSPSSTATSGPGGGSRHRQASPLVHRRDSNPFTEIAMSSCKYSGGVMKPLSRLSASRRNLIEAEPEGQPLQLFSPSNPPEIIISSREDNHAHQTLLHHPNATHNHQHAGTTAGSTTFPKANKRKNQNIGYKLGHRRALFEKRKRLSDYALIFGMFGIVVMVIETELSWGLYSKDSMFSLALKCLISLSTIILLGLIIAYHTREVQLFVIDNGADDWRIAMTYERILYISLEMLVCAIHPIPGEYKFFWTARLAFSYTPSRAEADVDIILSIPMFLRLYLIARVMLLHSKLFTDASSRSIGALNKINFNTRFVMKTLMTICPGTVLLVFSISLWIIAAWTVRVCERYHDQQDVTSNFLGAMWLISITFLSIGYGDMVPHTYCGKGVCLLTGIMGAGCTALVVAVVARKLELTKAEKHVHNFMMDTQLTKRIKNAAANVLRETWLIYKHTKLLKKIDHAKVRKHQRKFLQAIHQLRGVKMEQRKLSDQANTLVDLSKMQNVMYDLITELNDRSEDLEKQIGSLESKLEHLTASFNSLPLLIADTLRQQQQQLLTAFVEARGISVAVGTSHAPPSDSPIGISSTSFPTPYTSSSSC
T1 sequence (P70604 whole entry): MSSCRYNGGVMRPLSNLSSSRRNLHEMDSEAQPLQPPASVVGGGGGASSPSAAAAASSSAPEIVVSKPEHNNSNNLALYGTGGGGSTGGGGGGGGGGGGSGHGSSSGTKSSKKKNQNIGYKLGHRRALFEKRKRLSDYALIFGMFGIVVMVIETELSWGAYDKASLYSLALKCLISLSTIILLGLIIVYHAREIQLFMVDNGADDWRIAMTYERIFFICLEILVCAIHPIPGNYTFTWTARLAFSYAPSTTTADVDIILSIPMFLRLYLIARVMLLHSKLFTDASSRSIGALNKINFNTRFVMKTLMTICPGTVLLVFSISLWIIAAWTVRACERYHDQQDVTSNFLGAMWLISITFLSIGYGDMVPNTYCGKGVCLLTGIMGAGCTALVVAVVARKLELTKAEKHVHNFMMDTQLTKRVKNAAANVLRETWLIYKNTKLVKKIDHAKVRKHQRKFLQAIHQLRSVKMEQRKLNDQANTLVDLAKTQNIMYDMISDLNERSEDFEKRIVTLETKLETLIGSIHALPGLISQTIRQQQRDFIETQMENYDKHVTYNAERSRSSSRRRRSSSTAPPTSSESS

Molecule: CC[N+](CC)(CC)CCOc1cccc(OCC[N+](CC)(CC)CC)c1OCC[N+](CC)(CC)CC [Gallamine, gallamine]
- Ki (KCa2.2 [1]): 26000 ± 5000 nM
- Ki (KCa2.3 [2]): 71000 ± 8000 nM
- IC50 (KCa2.2 [3]): 7000 ± 800 nM
- common Hill slope of concentration-inhibition curves (KCa2.2 [3]): 0.7±0.04
- IC50 (KCa2.3 [4]): 98000 ± 700 nM

Molecule: Cc1cc(N)c2ccccc2[n+]1CCCCCCCCCC[n+]1c(C)cc(N)c2ccccc21 [Dequalinium, dequalinium]
- Ki (KCa2.2 [1]): 977 ± 165 nM
- Ki (KCa2.3 [2]): 865 ± 160 nM
- IC50 (KCa2.2 [3]): 420 ± 99 nM
- common Hill slope of concentration-inhibition curves (KCa2.2 [3]): 0.7±0.04
- IC50 (KCa2.3 [4]): 920 ± 140 nM

Molecule: 8,14-diaza-1,7(1, 4)-diquinolinacyclotetradecaphane [UCL 1848]
- inhibition of total 125I-apamin binding (KCa2.2 [1]; 100 nM UCL 1848, 30 pM 125I-apamin, KCa2.2 expressing HEK 293 cells): almost completely inhibited
- Ki (KCa2.2 [1]): 0.095 ± 0.0017 nM
- inhibition of total 125I-apamin binding (KCa2.3 [2]; 100 nM UCL 1848, 30 pM 125I-apamin, KCa2.3 expressing HEK 293 cells): almost completely inhibited
- Ki (KCa2.3 [2]): 0.652 ± 0.18 nM
- IC50 (KCa2.2 [3]): 0.125 ± 0.0025 nM
- common Hill slope of concentration-inhibition curves (KCa2.2 [3]): 0.7±0.04
- IC50 (KCa2.3 [4]): 2.1 ± 0.3 nM

Molecule: c1cc2cc(c1)C[n+]1ccc(c3ccccc31)NCc1ccc(cc1)CNc1cc[n+](c3ccccc13)C2 [UCL1684, 6,10–diaza-3(1,3),8(1,4)-dibenzena-1,5(1,4)- diquinolinacyclodecaphane]
- Ki (KCa2.2 [1]): 1.01 ± 0.022 nM
- Ki (KCa2.3 [2]): 7.7 ± 1.6 nM
- IC50 (KCa2.2 [3]): 0.53 ± 0.008 nM
- common Hill slope of concentration-inhibition curves (KCa2.2 [3]): 0.7±0.04
- IC50 (KCa2.3 [4]): 5.8 ± 0.3 nM
